Holding throughout (test): ≥ marks a high value that may be exact or a test limit, other limits are often not marked, values filed in µg/mL are converted to µM
Assay [1] relates to Escherichia coli HP101BA 7601c.
For assay [2], the system named is Klebsiella pneumoniae PTCC 1388.
Assay [3] has as its system Salmonella typhimurium PTCC 1428.
For assay [4], the system named is Staphylococcus aureus PTCC 1431.
Assay [5] relates to Streptococcus agalactiae PTCC 1365.
Assay [6] deals with Streptococcus dysgalactiae PTCC 1074.
Assay [7] has as its system Acinetobacter baumannii 5821.
The test system of assay [8] is Enterobacter cloacae 06-267.
The test system of assay [9] is Enterobacter cloacae 14-262.
Assay [10] relates to Escherichia coli 09-240.
The test system of assay [11] is Escherichia coli 09-280.
Assay [12] relates to Escherichia coli 170.
The subject of assay [13] is Escherichia coli 5509.
For assay [14], the system named is Escherichia coli ATCC 25922.
The test system of assay [15] is Klebsiella pneumoniae 01-239.
The subject of assay [16] is Klebsiella pneumoniae 01-252.
Assay [17] relates to Pseudomonas aeruginosa 3599.
Assay [18] deals with Pseudomonas aeruginosa 5106.
In assay [19] the test system is Pseudomonas aeruginosa ATCC 27853.
Assay [20] has as its system Pseudomonas aeruginosa ATCC 9027.
For assay [21], the system named is Staphylococcus aureus 01-001.
Assay [22] concerns Staphylococcus aureus 06-051.
Assay [23] deals with Staphylococcus aureus ATCC 29213.
The test system of assay [24] is Bacillus subtilis 168.
Assay [25] deals with Candida albicans F7-39/IDE99.
The subject of assay [26] is Escherichia coli B.
Assay [27] relates to Micrococcus luteus CCM 144.
Assay [28] relates to Pseudomonas aeruginosa.
Assay [29] has as its system Staphylococcus aureus.
In assay [30] the test system is Acinetobacter baumannii CICC 22934.
For assay [31], the system named is Acinetobacter baumannii.
Assay [32] relates to Bacillus cereus AS1.126.
Assay [33] deals with Bacillus cereus.
Assay [34] relates to Enterobacter cloacae CGMCC 1.58.
Assay [35] deals with Enterobacter cloacae.
Assay [36] concerns Enterococcus faecalis CGMCC 1.595.
For assay [37], the system named is Enterococcus faecium CGMCC 1.2334.
Assay [38] deals with Enterococcus faecium.
Assay [39] deals with Escherichia coli AS1.349.
The subject of assay [40] is Escherichia coli ATCC 11775.
In assay [41] the test system is Escherichia coli.
In assay [42] the test system is Klebsiella aerogenes CGMCC 1.876.
Assay [43] has as its system Klebsiella aerogenes.
Assay [44] relates to Klebsiella pneumoniae subsp. pneumoniae CGMCC 1.176.
For assay [45], the system named is Klebsiella pneumoniae.
For assay [46], the system named is Lactococcus lactis AS1.1690.
Assay [47] deals with Lactococcus lactis.
Assay [48] concerns Proteus mirabilis CICC 22931.
Assay [49] concerns Pseudomonas aeruginosa CGMCC 1.860.
Assay [50] relates to Pseudomonas fluorescens.
Assay [51] relates to Staphylococcus aureus AS1.72.
Assay [52] deals with Staphylococcus aureus ATCC 12600.
Assay [53] has as its system Staphylococcus epidermidis CICC 23664.
Assay [54] relates to Staphylococcus epidermidis.

Molecules are shown by their SMILES. In brackets after ≈: the same amount, converted by molar mass. Several values for one entry are separate records, joined by “and”; a condition that tells them apart may be missing. Identical values can stand only once.

Usually MIC stands for the lowest concentration that inhibits growth of the organism. A low value points to a more susceptible organism.

`CC(C)C[C@H](NC(=O)[C@@H](NC(=O)CNC(=O)[C@H](C)NC(=O)[C@H](CC(C)C)NC(=O)[C@@H](NC(=O)[C@@H]1CCCN1C(=O)[C@H](CC(C)C)NC(=O)[C@@H](N)Cc1ccccc1)C(C)C)C(C)C)C(=O)N[C@@H](CO)C(=O)N[C@@H](CCCN=C(N)N)C(=O)N[C@@H](C)C(N)=O` [FLPVLAGVLSRA]: the MIC in assay [1] is 27.8 µM (≈ 34.5 µg/mL); in assay [2], 28.2 µM (≈ 35.1 µg/mL); in assay [3], 25.6 µM (≈ 31.8 µg/mL); in assay [4] it was not below 33.9 µM; in assay [5] it was 24.5 µM (≈ 30.5 µg/mL); in [6], 17.5 µM (≈ 21.8 µg/mL).
As to `CC[C@H](C)[C@H](NC(=O)[C@H](C)NC(=O)[C@H](CC(N)=O)NC(=O)[C@H](CCCCN)NC(=O)[C@@H](NC(=O)CNC(=O)[C@H](CCC(=O)O)NC(=O)[C@H](Cc1c[nH]c2ccccc12)NC(=O)[C@H](CC(C)C)NC(=O)[C@H](CCCCN)NC(=O)CNC(=O)[C@H](Cc1c[nH]c2ccccc12)NC(=O)[C@@H](N)Cc1ccccc1)C(C)C)C(N)=O` [FWGKLWEGVKNAI], the MIC in assay [7] is not below 38 µM; in assay [8], not below 32 µM; in assay [9], not below 50 µM; in [10], not below 50 µM; in assay [11] it was not below 32 µM; in assay [12], not below 32 µM. For the same compound, the MIC in [13] was not below 32 µM; in assay [14], 25 µM (≈ 38.7 µg/mL); in [15] it was not below 50 µM; in assay [16], not below 32 µM; in [17] it was not below 32 µM; in [18], not below 32 µM. Further, the MIC in assay [19] was more than 32 µM; in [20], 40 µM (≈ 61.9 µg/mL); in assay [21], not below 32 µM; in assay [22], not below 32 µM; in assay [23], 32 µM (≈ 49.5 µg/mL).
In the case of `CC[C@H](C)[C@@H]1NC(=O)[C@H](CCCCN)NC(=O)[C@H](CCCCN)NC(=O)[C@@H]2CSSC[C@H](NC(=O)[C@H](C)NC(=O)[C@H](C(C)C)NC(=O)[C@@H](NC(=O)[C@@H](NC(=O)[C@@H](NC(=O)[C@H](CCCCN)NC(=O)[C@H](CCCCN)NC(=O)[C@@H](NC(=O)[C@H](CC(=O)O)NC(=O)[C@@H](N)CC(C)C)C(C)C)[C@@H](C)CC)[C@@H](C)CC)CSSC[C@@H](C(=O)N3CCC[C@H]3C(=O)N[C@@H](CCCCN)C(=O)O)NC1=O)C(=O)N[C@@H](CCCCN)C(=O)N[C@@H]([C@@H](C)CC)C(=O)N[C@@H](CCCCN)C(=O)N1CCC[C@H]1C(=O)N[C@@H](CC(N)=O)C(=O)N1CCC[C@H]1C(=O)N[C@@H](C)C(=O)N2` [LDVKKIICVACKIKPNPACKKICPK], the MIC in assay [24] was 3.3 µM (≈ 9.08 µg/mL); in [25], 24.2 µM (≈ 66.6 µg/mL); in assay [26] it was not below 63.3 µM; in assay [27], 1.6 µM (≈ 4.4 µg/mL); in [28] it was more than 100 µM; in [29], more than 100 µM.
For the compound `CC(C)C[C@H](NC(=O)CNC(=O)[C@H](Cc1ccccc1)NC(=O)[C@H](CCCN=C(N)N)NC(=O)[C@H](CCCN=C(N)N)NC(=O)CNC(=O)[C@H](Cc1cnc[nH]1)NC(=O)[C@H](CCCN=C(N)N)NC(=O)CNC(=O)[C@@H](NC(=O)[C@H](C)NC(=O)[C@@H](N)CO)C(C)C)C(=O)N[C@@H](CCCN=C(N)N)C(=O)N[C@@H](CCCCN)C(=O)N[C@@H](Cc1cnc[nH]1)C(=O)N[C@@H](CCCN=C(N)N)C(=O)N[C@@H](CCCCN)C(=O)N[C@@H](Cc1cnc[nH]1)C(=O)O` [SAVGRHGRRFGLRKHRKH], the MIC is not below 100 µM in assay [30]; not below 50 µM in [31]; 11.6 µM (≈ 25 µg/mL) in assay [32]; 11.6 µM (≈ 25 µg/mL) in assay [33]; not below 500 µM in assay [34]; not below 50 µM in [35]. Further, the MIC in assay [36] is not below 33.3 µM; in assay [37], not below 42.4 µM; in assay [38], not below 50 µM; in assay [39], not below 500 µM; in assay [40], 3 µM (≈ 6.47 µg/mL); in [41] it was > 100 µM and 50 µM. Further, the MIC in [42] is not below 500 µM; in [43], not below 50 µM; in [44], not below 500 µM; in assay [45] it was more than 50 µM; in [46], 15.6 µM (≈ 33.6 µg/mL); in [47], 11.6 µM (≈ 25 µg/mL). Further, the MIC in assay [48] is not below 100 µM; in [49], not below 380 µM; in [28], more than 50 µM; in assay [50], not below 50 µM; in [51], not below 58 µM; in [52], 6 µM (≈ 12.9 µg/mL). In addition, the MIC is 58 µM and 50 µM in assay [29]; 7.2 µM (≈ 15.5 µg/mL) in assay [53]; not below 50 µM in assay [54].

For the origin of these results see DBAASP.
